According to US8623865B2, “Acylpiperazinones and their use as pharmaceuticals” (Fab Parma S.A.S, priority 2009, dated 2014):
pIC50: −log10 of the molar value. ≈ marks a conversion by molar mass, not a printed value. Where “and” joins values, the source holds several entries; their conditions need not be identical. Equal entries are not always repeated. Where two headings read alike, the source gives them in different places. Blank lines part the entries; values can stand above or below the compound they belong to.

What was measured:
[1] = biological target: recombinant S. aureus FabI enzyme (Staphylococcus aureus (strain MRSA252), UniProt Q6GI75); assay: In vitro inhibition of recombinant S. aureus FabI enzyme (fluorescence based assay); assay type: biochemical; conditions: 60 min pre-incubation
Description: Compound inhibitory activity of FabI enzyme is measured in vitro by the IC50 determination using a fluorescence based assay.
The protein FabI from S. aureus is prepared and purified using standard methods for recombinant protein expression after cloning of the gene in a prokaryotic expression vector.
The biochemical activity of the FabI enzyme is assessed using the following method.
The assay buffer “AB” contained 50 mM ADA (N-(2-acetamido)iminodiacetic acid monosodium salt) pH 6.5, 1 mM dithiothreitol, 0.006% Triton-X100 and 50 mM NaCl. The following components are added in a white polystyrene Costar plate (Ref 3912) up to a final volume of 55.5 μL: 1.5 μL DMSO or inhibitor dissolved in DMSO and 54 μL of a FabI/NADPH/NADP+ mixture in AB. After 60 min of pre-incubation at room temperature, the reaction is started by addition of 5 μL of trans-2-octenoyl N-acetylcysteamine thioester (t-o-NAC) to a final volume of 60.5 μL. This reaction mixture is then composed of 2 nM FabI, 40 μM NADPH (Sigma, N7505), 10 μM NADP+ (Sigma, N5755), 100 μM t-O-NAC and compound at defined concentration. Fluorescence intensity of NADPH (λex=360 nm, λem=520 nm) is measured immediately after t-O-NAC addition (T0), and approximately 50 min later (T50) by a Fluostar Optima (BMG) so as to achieve ±30% of NADPH conversion. Enzyme activity is calculated by first subtracting TO signal to T50 and then subtracting background signal (FabI=0). Percentages of inhibition are calculated against untreated samples (Inhibitor=0) and IC50 are fitted to a classical Langmuir equilibrium model using XLFIT (IDBS).

[2] = tested on: S. aureus CIP 54.146 (MSSA); assay: MIC, broth microdilution, S. aureus CIP 54.146 (with and without 80% human serum); assay type: cell-based; conditions: Staphylococcus aureus
Description: The compounds of the invention are useful antibacterial agents having a selective spectrum of activity in vitro against bacterial strains relying on FabI and related targets. […] The activity is presented as Minimum Inhibitory Concentration (MIC) expressed in μg/ml and was determined using broth microdilution or Agar dilution methods.
(§1) Antibacterial activity was determined on MSSA CIP 54.146 provided by the Centre de Ressources Biologiques de l'Institut Pasteur. Antibacterial activity was also determined on MRSA (IHMA #510059) and MSSA (IHMA #555189).
This protocol is compliant with Clinical Laboratory Standards Institute (CLSI) methodology as described in M7-A7 document of the CLSI. The compound to be tested is diluted according to a geometric series of reason 2 in pure DMSO. Dilutions are transferred in sterile polystyrene microplates, followed by mid-log phase bacteria in cation-adjusted Muller-Hinton broth (ca-MHB, Fluka, Reference 90922) with a final inoculum of 5×10^5 cfu/ml. Microplates are incubated overnight at 35° C. MIC is defined as the lowest concentration of antimicrobial agent that completely prevents visible bacterial growth. All manipulations, but compound handling (in pure DMSO), are performed under sterile conditions. The final concentration of DMSO in the plates is 2%.
In order to evaluate the serum binding of test compounds, MICs were also measured in ca-MHB supplemented with 80% human serum (HS, Sigma, Reference H4522).

[3] = tested on: methicillin susceptible Staphylococcus aureus strain ATCC 29213; assay: In vivo protection assay, S. aureus infection of neutropenic mice (survival); set-up: species or system Swiss mice; conditions: 48 h
[4] = tested on: MRSA (IHMA #510059); assay: MIC, broth microdilution (susceptibility method), MRSA; assay type: cell-based; conditions: Staphylococcus aureus, read-out: MIC MRSA (IHMA #510059)
Description: as §1
(§2) Minimum inhibitory concentrations (MICs) were determined by broth microdilution according to CLSI guidelines (CLSI, M100-20^1, M7-A8^2, M27-A3^3). The compounds were tested in the range from […]. Colonies were taken directly from a second-pass culture plate and prepared to a suspension equivalent to the 0.5 McFarland standard using normal saline. […] The panels were incubated at 35° C. for 16 to 20 hours before reading the MIC endpoints. The compounds of Examples 4 to 8 were dissolved in DMSO to make the initial solutions of 5120 μg/ml. These solutions were diluted 1:10 in sterile water to a stock solution of 512 μg/ml. The stock solutions were further diluted into the appropriate broth medium for the sequential dilutions used in the broth microdilution panels. S. pneumoniae was tested in Mueller Hinton (MH) broth with 3% lysed horse blood and C. albicans was tested in RPMI-1640 medium. All other organisms were tested in MH broth.

[5] = tested on: MSSA (IHMA #555189); assay: MIC, broth microdilution (susceptibility method), MSSA; assay type: cell-based; conditions: Staphylococcus aureus, read-out: MIC MSSA (IHMA #555189)
Description: as §1, §2

[6] = tested on: E. coli (ATCC 25922); assay: MIC, broth microdilution (susceptibility method), E. coli; assay type: cell-based; conditions: Escherichia coli, ATCC25922, MH broth
Description: as §2

[7] = tested on: E. faecalis (ATCC 29212); assay: MIC, broth microdilution (susceptibility method), E. faecalis; assay type: cell-based; conditions: Enterococcus faecalis, ATCC29212, MH broth
Description: as §2

[8] = tested on: S. pneumoniae (ATCC 49619); assay: MIC, broth microdilution (susceptibility method), S. pneumoniae; assay type: cell-based; conditions: Streptococcus pneumoniae, ATCC49619, MH broth with 3% lysed horse blood
Description: as §2

[9] = tested on: C. albicans (ATCC 90028); assay: MIC, broth microdilution (susceptibility method), C. albicans; assay type: cell-based; conditions: Candida albicans, ATCC90028, RPMI-1640 medium
Description: as §2

[10] = biological target: HSA (Homo sapiens (Human), UniProt P02768); assay: HSA binding analysis using a chiral HSA column; assay type: in vitro ADME
Description: The test system used in this analysis was an HSA chiral column.
A 10 mM stock solution of Example 7 (molecular weight of 475.49 and HPLC purity 86.3%) was prepared by dissolving 1.8 mg of a compound of Example 7 in 0.327 ml of DMSO. The compound of Example 7 at a concentration of 100 μM was prepared by diluting the stock solution at 10 mM in DMSO with Potassium phosphate buffer pH 7.0.
The relationship between the retention time (Tr) and percentage of protein binding (PB %) depended on the dead time (T0) and the capacity factor (k′): PB %=[k′/(k′+1)]*100 • where k′=(Tr−T0)/T0 Results

[11] = rats, intravenous; cited from earlier work
[12] = ca-MHB supplemented with 80% human serum, read-out: MIC S. aureus CIP 54.146 in the presence of 80% human serum
[13] = ca-MHB, read-out: MIC S. aureus CIP 54.146

HSA, sequence (P02768 25-609): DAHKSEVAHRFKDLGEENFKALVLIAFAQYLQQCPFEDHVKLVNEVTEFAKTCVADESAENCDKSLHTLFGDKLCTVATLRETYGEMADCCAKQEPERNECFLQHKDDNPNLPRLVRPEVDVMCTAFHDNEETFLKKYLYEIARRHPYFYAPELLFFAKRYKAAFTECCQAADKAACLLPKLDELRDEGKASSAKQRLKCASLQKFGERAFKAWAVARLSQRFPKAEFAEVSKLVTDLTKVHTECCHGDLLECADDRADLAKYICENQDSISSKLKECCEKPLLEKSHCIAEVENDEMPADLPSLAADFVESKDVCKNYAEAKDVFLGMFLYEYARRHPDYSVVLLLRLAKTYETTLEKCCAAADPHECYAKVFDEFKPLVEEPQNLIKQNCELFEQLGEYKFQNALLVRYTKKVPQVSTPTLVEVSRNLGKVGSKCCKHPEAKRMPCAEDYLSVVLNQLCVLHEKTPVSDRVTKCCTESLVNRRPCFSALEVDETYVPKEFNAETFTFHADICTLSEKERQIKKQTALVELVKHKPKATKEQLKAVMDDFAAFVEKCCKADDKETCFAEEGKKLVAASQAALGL

SMILES: CCc1cc(O)c(Oc2ccc(C(=O)N3CCNC(=O)C3)cc2F)cc1F [Example 1, 4-[4-(4-Ethyl-5-fluoro-2-hydroxyphenoxy)-3-fluorobenzoyl]piperazin-2-one]
pIC50 [1]: 7.80
MIC [2, 12]: 0.5 µg/mL
MIC [2, 13]: 0.25 µg/mL (≈ 0.664 µM)
Protection of infected mice (survival rate) ([3]; single oral administration, 100 and 200 mg/kg): able to protect mice against bacterial dissemination
Protection of infected mice (survival rate) ([3]; single subcutaneous administration, 6.25 and 12.5 mg/kg): able to protect mice against bacterial dissemination

SMILES: CCc1ccc(Oc2ccc(C(=O)N3CCNC(=O)C3)cc2F)c(O)c1 [Example 2, 4-[4-(4-Ethyl-2-hydroxyphenoxy)-3-fluorobenzoyl]piperazin-2-one]
pIC50 [1]: 7.54
MIC [2, 12]: 1 µg/mL
MIC [2, 13]: 1 µg/mL (≈ 2.79 µM)

SMILES: CCOC(=O)Oc1cc(CC)c(F)cc1Oc1ccc(C(=O)N2CCNC(=O)C2)cc1F [Example 3, 4-Fluoro-2-{2-fluoro-4-[(3-oxopiperazin-1-yl)carbonyl]phenoxy}-5-ethylphenyl ethyl carbonate]
pIC50 [1]: 5.30

MIC ([4]; broth microdilution, MH broth): 32 µg/mL (≈ 82 µM)
MIC ([5]; broth microdilution, MH broth): 4 µg/mL (≈ 10.2 µM)
SMILES: CCc1cc(O)c(Oc2ccc(C(=O)N3CC(=O)NC(=O)C3)cc2F)cc1F [Example 4, 4-[4-(4-Ethyl-5-fluoro-2-hydroxyphenoxy)-3-fluorobenzoyl]piperazine-2,6-dione]

MIC ([4]; broth microdilution, MH broth): 1 µg/mL (≈ 2.56 µM)
MIC ([5]; broth microdilution, MH broth): 0.015 µg/mL (≈ 0.0384 µM)
SMILES: CCc1cc(O)c(Oc2ccc(C(=O)N3CCN(C)C(=O)C3)cc2F)cc1F [Example 5, 4-[4-(4-Ethyl-5-fluoro-2-hydroxyphenoxy)-3-fluorobenzoyl]-1-methylpiperazin-2-one]

MIC ([4]; broth microdilution, MH broth): 4 µg/mL (≈ 9.23 µM)
MIC ([5]; broth microdilution, MH broth): 0.25 µg/mL (≈ 0.577 µM)
SMILES: CCc1cc(O)c(Oc2ccc(C(=O)N3CCN(CC(N)=O)C(=O)C3)cc2F)cc1F [Example 6, 2-[4-(4-(4-Ethyl-5-fluoro-2-hydroxyphenoxy)-3-fluorobenzoyl]-2-oxopiperazin-1-yl)acetamide]

SMILES: CCc1cc(O)c(Oc2ccc(C(=O)N3CCN(CN4CCOCC4)C(=O)C3)cc2F)cc1F [Example 7, 4-[4-(4-Ethyl-5-fluoro-2-hydroxyphenoxy)-3-fluorobenzoyl]-1-(morpholinomethyl)piperazin-2-one]
MIC [4]: 0.06 µg/mL (≈ 0.126 µM)
MIC [5]: 0.06 µg/mL (≈ 0.126 µM)
MIC [6]: 4 µg/mL (≈ 8.41 µM)
MIC [7]: 64 µg/mL (≈ 135 µM)
MIC [8]: > 128 µg/mL
MIC [9]: > 128 µg/mL
Binding to HSA (in words) [10]: moderate binding
HSA Binding (%) ([10]; 37° C., pH 7.0, 100 μM): 74.9%
C (average) ([10]; average of 3 tests): 0.75
k′ (average) ([10]; average of 3 tests): 2.987
k′ (capacity factor) ([10]; single test): 2.987 and 2.981 and 2.993

MIC ([4]; broth microdilution, MH broth): 1 µg/mL (≈ 2.56 µM)
MIC ([5]; broth microdilution, MH broth): 0.06 µg/mL (≈ 0.154 µM)
SMILES: CCc1cc(O)c(Oc2ccc(C(=O)N3CCNC(=O)C3C)cc2F)cc1F (centres unmarked) [Example 8, 4-[4-(4-Ethyl-5-fluoro-2-hydroxyphenoxy)-3-fluorobenzoyl]-3-methyl piperazin-2-one]

SMILES: Oc1cc(Cl)ccc1Oc1ccc(Cl)cc1Cl [Triclosan]
LD50 [11]: 29 mg/kg
